# Reference: ChEMBL document CHEMBL1201862, “PubChem BioAssay data set” (2004)
# Active and inactive are the calls of the source.
# Legend:
# [1] = biological target: Protein Rev (Human immunodeficiency virus type 1 group M subtype B (isolate WMJ22)(HIV-1), UniProt P05866); assay: HIV-1 Rev-RRE RNA binding disruptors, dose response, biochemical, protein-RNA interaction (AID 842); parameters: species or system Human immunodeficiency virus 1
# [2] = biological target: T1, Tyrosine-protein phosphatase non-receptor type 7 (Homo sapiens, UniProt P35236); format: functional
# T1 sequence (P35236 whole entry): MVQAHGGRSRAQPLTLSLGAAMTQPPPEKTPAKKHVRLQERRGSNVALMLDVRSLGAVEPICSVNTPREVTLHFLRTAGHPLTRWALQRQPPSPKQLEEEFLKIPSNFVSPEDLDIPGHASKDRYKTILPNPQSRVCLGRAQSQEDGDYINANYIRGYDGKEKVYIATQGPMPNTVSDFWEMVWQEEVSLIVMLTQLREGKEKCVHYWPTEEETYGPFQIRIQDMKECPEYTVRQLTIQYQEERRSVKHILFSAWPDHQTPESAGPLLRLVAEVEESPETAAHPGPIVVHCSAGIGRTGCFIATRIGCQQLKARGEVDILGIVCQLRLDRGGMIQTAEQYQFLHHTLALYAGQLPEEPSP
# [3] = biological target: T2, Tyrosine-protein phosphatase non-receptor type 22 (Homo sapiens, UniProt Q9Y2R2); format: functional
# T2 sequence (Q9Y2R2 whole entry): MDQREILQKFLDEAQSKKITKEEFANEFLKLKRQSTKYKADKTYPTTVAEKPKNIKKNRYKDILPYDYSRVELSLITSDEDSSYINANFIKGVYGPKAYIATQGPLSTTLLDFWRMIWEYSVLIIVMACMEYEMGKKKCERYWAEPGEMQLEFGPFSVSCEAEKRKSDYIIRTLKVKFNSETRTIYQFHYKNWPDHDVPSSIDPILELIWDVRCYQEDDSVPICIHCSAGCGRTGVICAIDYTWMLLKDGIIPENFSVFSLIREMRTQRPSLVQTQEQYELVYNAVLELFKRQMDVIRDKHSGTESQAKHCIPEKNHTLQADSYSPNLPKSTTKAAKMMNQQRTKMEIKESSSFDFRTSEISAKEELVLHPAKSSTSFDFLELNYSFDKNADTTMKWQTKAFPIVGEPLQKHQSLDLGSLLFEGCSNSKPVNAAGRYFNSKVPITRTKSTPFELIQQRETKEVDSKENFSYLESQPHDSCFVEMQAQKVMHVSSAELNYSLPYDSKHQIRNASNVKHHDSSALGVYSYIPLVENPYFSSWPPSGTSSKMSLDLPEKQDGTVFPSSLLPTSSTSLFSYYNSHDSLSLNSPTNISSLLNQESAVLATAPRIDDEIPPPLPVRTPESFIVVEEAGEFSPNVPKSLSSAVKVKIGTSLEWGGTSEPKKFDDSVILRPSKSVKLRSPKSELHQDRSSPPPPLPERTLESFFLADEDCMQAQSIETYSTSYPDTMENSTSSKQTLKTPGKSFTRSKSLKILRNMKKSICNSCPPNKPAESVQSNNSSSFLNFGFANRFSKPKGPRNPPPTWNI
# [4] = biological target: T2, Tyrosine-protein phosphatase non-receptor type 22; format: functional; remark: listed apart in the source
# [5] = biological target: G-protein coupled receptor 55 (Homo sapiens, UniProt Q9Y2T6); assay: GPR55 antagonists blocking LPI-driven arrestin recruitment, primary screen, imaging, U2OS, beta-arrestin-GFP, LPI agonist (AID 2013); format: functional;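 also: antagonist potency measured as reduced agonist-driven arrestin aggregation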
# [6] = biological target: Melanin-concentrating hormone receptor 1 (Homo sapiens, UniProt Q99705); assay: Fluorescence-based counterscreen for antagonists of the G-protein coupled receptor 7 (GPR7): cell-based high throughput dose response assay to identify antagonists of the melanin-concentrating hormone receptor 1 (MCHR1).; format: functional
# [7] = biological target: T3, Bcl-2-related protein A1 (Mus musculus, UniProt Q07440); assay: Bfl-1 inhibitors blocking BH3 peptide binding, confirmation, biochemical, TR-FRET, mouse Bfl-1 (AID 621);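 also: TR-FRET binding of GST-Bfl-1 to FITC-labelled Bid peptide via terbium antibody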
# T3 sequence (Q07440 whole entry): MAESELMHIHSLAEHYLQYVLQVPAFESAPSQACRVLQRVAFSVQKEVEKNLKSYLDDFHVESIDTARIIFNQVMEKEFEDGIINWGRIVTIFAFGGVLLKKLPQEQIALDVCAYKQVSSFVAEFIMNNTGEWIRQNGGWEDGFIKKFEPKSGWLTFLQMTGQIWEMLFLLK
# [8] = biological target: Glyceraldehyde-3-phosphate dehydrogenase (Homo sapiens, UniProt P04406)
# [9] = biological target: T3, Bcl-2-related protein A1; assay: Bfl-1 binding inhibitors, SAR follow-up, biochemical, fluorescence polarization (AID 1070)
# [10] = biological target: Lysosomal acid glucosylceramidase (Homo sapiens, UniProt P04062); assay: Dose response cell-based high throughput screening assay to identify enhancers of beta-glucosidase activity. [Related pubchem assays: 784 ]; format: functional
# [11] = biological target: T4, Rac GTPase-activating protein 1 (Homo sapiens, UniProt Q9H0H5); assay: MgcRacGAP GTPase-activating activity inhibitors, confirmation, biochemical, ADP Hunter fluorescence, primary and confirmatory (AID 624330); format: functional
# T4 sequence (Q9H0H5 whole entry): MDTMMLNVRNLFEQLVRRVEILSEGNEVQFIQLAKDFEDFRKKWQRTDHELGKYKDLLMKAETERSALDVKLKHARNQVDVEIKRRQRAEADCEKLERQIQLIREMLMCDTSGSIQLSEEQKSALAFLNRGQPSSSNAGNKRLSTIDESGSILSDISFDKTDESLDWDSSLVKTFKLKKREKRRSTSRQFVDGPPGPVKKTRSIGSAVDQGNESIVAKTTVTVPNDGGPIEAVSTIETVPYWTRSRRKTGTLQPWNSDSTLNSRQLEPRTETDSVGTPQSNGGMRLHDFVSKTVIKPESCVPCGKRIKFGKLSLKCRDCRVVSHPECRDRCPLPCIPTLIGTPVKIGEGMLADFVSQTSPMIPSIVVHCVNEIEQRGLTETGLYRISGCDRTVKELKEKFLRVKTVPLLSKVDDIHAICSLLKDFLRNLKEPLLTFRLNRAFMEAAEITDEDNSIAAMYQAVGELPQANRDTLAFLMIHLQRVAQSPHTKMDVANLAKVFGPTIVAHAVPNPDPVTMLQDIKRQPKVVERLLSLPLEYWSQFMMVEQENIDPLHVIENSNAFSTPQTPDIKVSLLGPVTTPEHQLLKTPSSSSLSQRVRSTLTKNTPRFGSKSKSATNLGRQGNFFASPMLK
# [12] = biological target: T5, SUMO-activating enzyme (Homo sapiens, UniProt Q9UBT2); assay: inhibitors of in vitro SUMOylation cascade, primary screen, biochemical, HTRF, uHTS (AID 2006); format: protein-complex assay
# [13] = biological target: Eukaryotic translation initiation factor 4E (Mus musculus, UniProt P63073); assay: eIF4E–eIF4G protein interaction inhibitors, dose response, biochemical, TR-FRET (AID 855); format: functional;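 also: potency for disrupting eIF4E binding to eIF4GI seen as loss of FRET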
# [14] = growth suppression of PTEN-null colon cells, dose response, cell-based, HCT116 PTEN knockout (AID 1047); format: functional;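 also: HCT116 colon tumor cells with PTEN knocked out; cells exposed to compound for 60 hours before readout; potency for loss of cell viability measured by luminescence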
# [15] = Luminescence Cell-Based Dose Retest to Confirm Inhibitors of Cancer Stem Cells. [Related pubchem assays (depositor defined):AID2717, AID2721]; format: functional; details: Homo sapiens
# [16] = growth suppression of beta-catenin-knockout colon cells, dose response, cell-based, HCT116, human colon tumor (AID 1045); format: functional;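 also: HCT116 colon tumor cells with beta catenin knocked out; cells exposed to compound for 60 hours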
# [17] = system: Vero; assay: cells; format: functional; details: Chlorocebus sabaeus
# [18] = biological target: T5, SUMO-activating enzyme; assay: SUMOylation inhibitor hit validation, confirmation, SUMOylation inhibitor project, biochemical, AlphaScreen (AID 2018); format: functional
# [19] = HEp-2 cell cytotoxicity, dose response, cytotoxicity control for RSV inhibitor project, HTS (AID 2410); format: functional; details: human respiratory syncytial virus
# [20] = biological target: Induced myeloid leukemia cell differentiation protein Mcl-1 (Homo sapiens, UniProt Q07820); format: functional
# [21] = cells
# [22] = biological target: Kallikrein-7 (Homo sapiens, UniProt P49862); assay: Fluorescence Intensity-based biochemical primary high throughput dose response assay to identify activators of kallikrein-7 (K7) zymogen.
# [23] = biological target: T6, DNA repair and recombination protein RAD54-like (Homo sapiens, UniProt Q92698); assay: inhibitors of human RAD54 branch migration, confirmation, biochemical, fluorescence, cherry-picked samples, dose series (AID 651657); format: functional
# T6 sequence (Q92698 whole entry): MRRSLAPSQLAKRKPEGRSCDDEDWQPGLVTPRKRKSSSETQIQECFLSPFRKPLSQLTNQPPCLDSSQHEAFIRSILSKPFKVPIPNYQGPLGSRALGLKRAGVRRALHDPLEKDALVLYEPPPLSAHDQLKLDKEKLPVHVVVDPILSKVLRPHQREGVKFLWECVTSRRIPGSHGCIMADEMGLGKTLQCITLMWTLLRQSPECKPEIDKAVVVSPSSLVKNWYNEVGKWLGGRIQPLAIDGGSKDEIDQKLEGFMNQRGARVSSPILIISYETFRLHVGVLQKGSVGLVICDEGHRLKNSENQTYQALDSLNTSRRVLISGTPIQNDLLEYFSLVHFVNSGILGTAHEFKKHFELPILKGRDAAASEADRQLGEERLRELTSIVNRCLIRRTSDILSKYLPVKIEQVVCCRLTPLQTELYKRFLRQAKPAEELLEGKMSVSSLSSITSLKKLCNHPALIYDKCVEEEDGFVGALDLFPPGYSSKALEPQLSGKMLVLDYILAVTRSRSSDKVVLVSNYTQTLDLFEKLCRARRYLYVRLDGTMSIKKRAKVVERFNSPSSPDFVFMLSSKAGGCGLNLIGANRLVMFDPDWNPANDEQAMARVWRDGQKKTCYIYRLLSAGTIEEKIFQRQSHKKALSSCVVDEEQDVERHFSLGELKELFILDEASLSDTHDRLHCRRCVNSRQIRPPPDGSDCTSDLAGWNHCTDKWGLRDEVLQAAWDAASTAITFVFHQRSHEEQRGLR
# [24] = cytotoxicity in HEK-293T cells, dose response, cytotoxicity control for BCR NF-kB inhibitor project, luminescence, B-cell screen hits (AID 489021); format: functional, cell-based;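 also: HEK-293T cells carrying an NF-kB luciferase reporter; cells exposed to compound for about 14 hours before viability readout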
# [25] = biological target: Cytochrome P450 3A4 (Homo sapiens, UniProt P08684);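 also: CYP3A4 tested as one member of a cytochrome P450 panel screen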
# [26] = biological target: T7, Sentrin-specific protease 1 (Homo sapiens, UniProt Q9P0U3); assay: potency of human SENP1 inhibitors, dose response, biochemical, kinetic FRET (AID 651697); format: functional; details: read-out: IC50_Mean
# T7 sequence (Q9P0U3 whole entry): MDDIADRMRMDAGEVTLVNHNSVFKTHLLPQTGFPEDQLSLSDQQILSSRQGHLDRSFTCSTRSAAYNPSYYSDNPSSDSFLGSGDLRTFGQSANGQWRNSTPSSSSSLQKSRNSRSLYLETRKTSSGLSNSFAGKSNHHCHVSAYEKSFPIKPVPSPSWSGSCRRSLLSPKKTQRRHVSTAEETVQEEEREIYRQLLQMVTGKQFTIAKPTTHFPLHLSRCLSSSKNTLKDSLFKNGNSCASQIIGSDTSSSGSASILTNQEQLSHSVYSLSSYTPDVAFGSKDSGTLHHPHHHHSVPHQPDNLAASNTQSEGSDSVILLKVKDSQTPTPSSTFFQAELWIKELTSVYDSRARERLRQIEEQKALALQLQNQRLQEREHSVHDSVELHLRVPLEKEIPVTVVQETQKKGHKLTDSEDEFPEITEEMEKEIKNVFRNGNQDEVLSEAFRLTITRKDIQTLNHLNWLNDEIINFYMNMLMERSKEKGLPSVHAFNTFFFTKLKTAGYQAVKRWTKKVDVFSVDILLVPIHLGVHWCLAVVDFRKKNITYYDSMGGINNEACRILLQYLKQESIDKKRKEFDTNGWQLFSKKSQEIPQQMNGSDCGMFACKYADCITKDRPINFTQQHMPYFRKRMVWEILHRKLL
# [27] = biological target: T7, Sentrin-specific protease 1; assay: Dose response confirmation of small molecule inhibitors of the catalytic domain of the SUMO protease, SENP1 in a FRET assay.; format: functional; details: read-out: IC50_Mean
# [28] = biological target: Metabotropic glutamate receptor 4 (Rattus norvegicus, UniProt P31423); assay: Modulation of the Metabotropic Glutamate Receptor mGluR4: Rat PAM Potency. [Related pubchem assays (depositor defined):AID2437, AID2807]; format: functional
# Chain of Metabotropic glutamate receptor 4 (P31423 whole entry): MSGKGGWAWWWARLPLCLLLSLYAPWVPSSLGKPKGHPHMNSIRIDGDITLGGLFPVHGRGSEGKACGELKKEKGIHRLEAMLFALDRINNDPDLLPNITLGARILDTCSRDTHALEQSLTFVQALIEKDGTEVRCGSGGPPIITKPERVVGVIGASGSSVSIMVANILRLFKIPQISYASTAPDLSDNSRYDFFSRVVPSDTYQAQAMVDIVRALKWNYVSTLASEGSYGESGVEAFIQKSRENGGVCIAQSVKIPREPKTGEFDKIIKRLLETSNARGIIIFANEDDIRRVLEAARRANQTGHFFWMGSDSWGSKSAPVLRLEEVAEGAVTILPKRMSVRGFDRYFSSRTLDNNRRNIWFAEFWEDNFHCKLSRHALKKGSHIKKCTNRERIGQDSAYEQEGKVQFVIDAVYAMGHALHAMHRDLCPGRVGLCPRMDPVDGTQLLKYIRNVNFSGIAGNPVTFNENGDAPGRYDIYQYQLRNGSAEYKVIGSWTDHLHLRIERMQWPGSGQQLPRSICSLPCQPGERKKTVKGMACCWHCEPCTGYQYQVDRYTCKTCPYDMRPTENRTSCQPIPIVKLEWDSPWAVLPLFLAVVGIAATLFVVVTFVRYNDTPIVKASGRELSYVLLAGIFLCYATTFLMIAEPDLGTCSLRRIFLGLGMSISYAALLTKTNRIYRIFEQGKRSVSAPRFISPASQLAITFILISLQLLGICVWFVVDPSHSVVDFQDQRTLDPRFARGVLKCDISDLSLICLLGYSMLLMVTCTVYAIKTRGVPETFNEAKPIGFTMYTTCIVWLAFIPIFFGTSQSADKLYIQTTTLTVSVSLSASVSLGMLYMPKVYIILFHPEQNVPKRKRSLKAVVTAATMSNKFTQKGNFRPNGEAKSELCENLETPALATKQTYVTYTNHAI
# T5 sequence (Q9UBE0 whole entry): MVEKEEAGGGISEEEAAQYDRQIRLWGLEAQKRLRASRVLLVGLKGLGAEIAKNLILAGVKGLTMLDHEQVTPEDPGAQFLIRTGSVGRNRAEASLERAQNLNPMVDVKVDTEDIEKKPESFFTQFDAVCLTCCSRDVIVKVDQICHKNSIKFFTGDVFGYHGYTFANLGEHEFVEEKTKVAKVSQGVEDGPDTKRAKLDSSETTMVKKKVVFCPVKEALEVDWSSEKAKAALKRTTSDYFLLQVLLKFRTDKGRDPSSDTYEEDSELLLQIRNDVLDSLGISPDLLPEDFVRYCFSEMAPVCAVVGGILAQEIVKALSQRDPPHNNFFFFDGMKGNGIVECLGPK
# T5 sequence (Q9UBT2 whole entry): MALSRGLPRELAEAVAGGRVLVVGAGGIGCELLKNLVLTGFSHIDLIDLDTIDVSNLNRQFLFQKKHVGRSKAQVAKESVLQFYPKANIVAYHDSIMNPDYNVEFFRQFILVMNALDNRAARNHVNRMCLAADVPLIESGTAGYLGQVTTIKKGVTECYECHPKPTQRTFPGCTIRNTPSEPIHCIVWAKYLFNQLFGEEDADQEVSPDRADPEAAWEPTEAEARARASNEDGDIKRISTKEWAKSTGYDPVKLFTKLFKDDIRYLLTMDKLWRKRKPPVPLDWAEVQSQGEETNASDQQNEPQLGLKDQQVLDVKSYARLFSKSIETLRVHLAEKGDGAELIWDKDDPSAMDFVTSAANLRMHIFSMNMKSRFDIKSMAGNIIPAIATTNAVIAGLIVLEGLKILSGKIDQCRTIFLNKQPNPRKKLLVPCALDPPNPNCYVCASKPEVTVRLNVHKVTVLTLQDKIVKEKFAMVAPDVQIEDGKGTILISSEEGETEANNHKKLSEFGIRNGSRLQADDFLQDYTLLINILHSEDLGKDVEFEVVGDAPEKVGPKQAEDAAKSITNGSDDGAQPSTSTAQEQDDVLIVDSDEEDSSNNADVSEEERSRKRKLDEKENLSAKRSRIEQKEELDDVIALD
# Chain of G-protein coupled receptor 55 (Q9Y2T6 whole entry): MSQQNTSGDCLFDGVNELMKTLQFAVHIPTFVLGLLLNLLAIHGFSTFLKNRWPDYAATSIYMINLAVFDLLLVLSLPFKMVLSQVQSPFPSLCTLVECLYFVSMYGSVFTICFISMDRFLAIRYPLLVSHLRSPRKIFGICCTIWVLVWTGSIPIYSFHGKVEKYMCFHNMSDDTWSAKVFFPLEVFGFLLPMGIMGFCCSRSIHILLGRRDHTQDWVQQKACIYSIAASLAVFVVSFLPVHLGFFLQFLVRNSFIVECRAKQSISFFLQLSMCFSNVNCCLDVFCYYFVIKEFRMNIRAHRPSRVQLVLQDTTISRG
# Chain of Lysosomal acid glucosylceramidase (P04062 whole entry): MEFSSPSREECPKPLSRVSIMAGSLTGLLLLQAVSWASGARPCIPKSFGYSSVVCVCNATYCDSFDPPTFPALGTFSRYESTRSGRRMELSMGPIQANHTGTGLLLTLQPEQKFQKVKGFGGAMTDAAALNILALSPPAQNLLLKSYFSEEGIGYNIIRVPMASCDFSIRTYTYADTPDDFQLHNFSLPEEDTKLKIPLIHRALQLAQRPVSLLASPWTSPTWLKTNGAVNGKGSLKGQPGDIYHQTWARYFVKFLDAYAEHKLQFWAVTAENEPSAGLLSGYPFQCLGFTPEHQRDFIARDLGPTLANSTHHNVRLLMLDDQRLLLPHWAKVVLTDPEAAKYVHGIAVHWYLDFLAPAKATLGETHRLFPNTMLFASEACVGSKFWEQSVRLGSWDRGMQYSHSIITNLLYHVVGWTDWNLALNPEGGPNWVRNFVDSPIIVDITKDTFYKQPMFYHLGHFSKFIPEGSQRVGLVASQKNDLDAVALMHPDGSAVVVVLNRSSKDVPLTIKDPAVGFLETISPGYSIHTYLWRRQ
# Chain of Protein Rev (P05866 whole entry): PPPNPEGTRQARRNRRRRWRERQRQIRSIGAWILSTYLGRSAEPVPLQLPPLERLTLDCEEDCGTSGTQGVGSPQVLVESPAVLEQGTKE
# Chain of Kallikrein-7 (P49862 whole entry): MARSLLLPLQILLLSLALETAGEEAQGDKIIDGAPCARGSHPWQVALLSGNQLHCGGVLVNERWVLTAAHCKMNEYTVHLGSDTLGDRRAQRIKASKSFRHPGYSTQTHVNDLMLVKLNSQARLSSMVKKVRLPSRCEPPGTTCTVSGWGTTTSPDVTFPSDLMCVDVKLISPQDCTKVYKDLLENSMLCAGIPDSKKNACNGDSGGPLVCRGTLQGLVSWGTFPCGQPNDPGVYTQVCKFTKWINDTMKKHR
# Chain of Melanin-concentrating hormone receptor 1 (Q99705 whole entry): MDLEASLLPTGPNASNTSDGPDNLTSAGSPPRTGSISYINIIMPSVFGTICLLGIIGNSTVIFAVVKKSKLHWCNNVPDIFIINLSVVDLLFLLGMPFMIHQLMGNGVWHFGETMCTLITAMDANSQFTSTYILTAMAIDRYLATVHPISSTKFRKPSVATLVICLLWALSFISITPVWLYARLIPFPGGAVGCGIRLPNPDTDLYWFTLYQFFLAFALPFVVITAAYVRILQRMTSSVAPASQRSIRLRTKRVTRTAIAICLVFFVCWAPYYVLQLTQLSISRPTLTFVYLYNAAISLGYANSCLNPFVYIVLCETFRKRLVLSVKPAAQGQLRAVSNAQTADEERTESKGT
# Chain of Induced myeloid leukemia cell differentiation protein Mcl-1 (Q07820 whole entry): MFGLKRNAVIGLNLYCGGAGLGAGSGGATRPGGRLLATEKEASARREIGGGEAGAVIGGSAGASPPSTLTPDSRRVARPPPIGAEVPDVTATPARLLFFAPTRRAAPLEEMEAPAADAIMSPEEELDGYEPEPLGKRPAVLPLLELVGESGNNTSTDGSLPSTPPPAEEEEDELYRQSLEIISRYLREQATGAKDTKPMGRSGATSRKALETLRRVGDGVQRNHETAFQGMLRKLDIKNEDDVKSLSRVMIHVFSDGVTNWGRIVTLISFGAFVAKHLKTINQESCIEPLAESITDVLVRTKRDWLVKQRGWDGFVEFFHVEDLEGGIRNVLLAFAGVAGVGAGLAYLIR
# Chain of Glyceraldehyde-3-phosphate dehydrogenase (P04406 whole entry): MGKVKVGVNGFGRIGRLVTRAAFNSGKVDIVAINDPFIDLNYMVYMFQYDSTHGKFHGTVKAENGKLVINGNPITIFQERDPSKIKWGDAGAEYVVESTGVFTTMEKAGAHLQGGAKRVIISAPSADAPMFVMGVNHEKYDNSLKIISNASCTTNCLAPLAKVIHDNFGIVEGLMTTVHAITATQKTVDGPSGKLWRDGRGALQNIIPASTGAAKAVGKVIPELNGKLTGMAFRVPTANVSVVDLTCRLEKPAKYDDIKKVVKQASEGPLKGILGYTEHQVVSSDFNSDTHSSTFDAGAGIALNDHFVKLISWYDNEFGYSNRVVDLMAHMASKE
# Chain of Cytochrome P450 3A4 (P08684 whole entry): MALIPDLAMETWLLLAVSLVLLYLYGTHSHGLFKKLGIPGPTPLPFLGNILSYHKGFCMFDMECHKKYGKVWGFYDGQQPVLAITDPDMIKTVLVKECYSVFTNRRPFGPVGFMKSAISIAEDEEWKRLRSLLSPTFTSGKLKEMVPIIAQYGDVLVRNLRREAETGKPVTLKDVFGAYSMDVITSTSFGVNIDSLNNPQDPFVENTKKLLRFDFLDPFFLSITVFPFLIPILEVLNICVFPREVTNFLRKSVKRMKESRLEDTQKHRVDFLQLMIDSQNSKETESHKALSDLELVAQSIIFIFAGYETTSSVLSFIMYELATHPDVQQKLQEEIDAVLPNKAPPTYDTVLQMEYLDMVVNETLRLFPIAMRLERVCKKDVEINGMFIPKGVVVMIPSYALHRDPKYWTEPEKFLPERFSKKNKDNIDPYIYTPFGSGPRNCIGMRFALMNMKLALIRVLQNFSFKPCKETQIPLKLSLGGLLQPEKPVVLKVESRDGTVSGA
# Chain of Eukaryotic translation initiation factor 4E (P63073 whole entry): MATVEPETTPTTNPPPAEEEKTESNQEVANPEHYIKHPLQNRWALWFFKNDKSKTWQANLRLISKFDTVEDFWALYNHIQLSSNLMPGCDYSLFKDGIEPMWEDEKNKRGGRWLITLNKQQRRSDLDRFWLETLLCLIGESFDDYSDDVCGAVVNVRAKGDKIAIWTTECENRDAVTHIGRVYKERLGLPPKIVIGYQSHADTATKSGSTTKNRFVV
smiles,measurement,setting,value
NCCCC(=O)N1c2ccccc2Sc2ccccc21,IC50,[1],> 79.4 µM (not active)
Cc1cc2ncc(Cl)nc2cc1C,IC50,[2],> 79.4 µM (inactive)
same,IC50,[3],> 79.4 µM (inactive)
same,IC50,[4],> 79.4 µM (inactive)
CC(C)COc1ccc(Cc2cnc(N)nc2N)cc1,IC50,[1],> 79.4 µM (not active)
Cc1cc(O)ccc1C1(c2ccc(O)cc2C)OC(=O)c2ccccc21,IC50,[5],3.46 µM (active)
COCCCNC(=O)/C=C1\Sc2ccccc2N(Cc2ccccc2F)C1=O,IC50,[6],28.8 µM (not active)
CN1CCN(C2=C(Cl)C(=O)N(c3ccnc(Cl)c3)C2=O)CC1,IC50,[7],35.6 µM (active)
same,IC50,[8],> 100 µM (not active)
same,IC50,[9],29 µM (active)
CC1=C(C(N)=O)C(c2cccs2)n2nc(-c3cccc(C)c3)nc2N1 (stereo unspecified),EC50,[10],> 50 µM (not active)
O=[N+]([O-])c1cc([N+](=O)[O-])c2nonc2c1Nc1ccc(O)cc1,IC50,[11],56.8 µM (active)
same,IC50,[12],> 100 µM (inactive)
COc1cc2c(-c3ccc(O)cc3)nc3c(c(C)nn3-c3ccccc3)c2cc1OC,IC50,[13],53.5 µM (inactive)
same,EC50,[14],9.2 µM (active)
same,AC50,[15],1.23 µM (active)
same,EC50,[16],8.96 µM (active)
same,CC50,[17],19.7 µM (active)
same,IC50,[18],2.06 µM (active)
same,CC50,[19],9.63 µM (active)
same,IC50,[20],< 0.4 µM (active)
same,IC50,[21],19.1 µM (active)
same,IC50,[12],7.67 µM (active)
CCOCCCn1c(=N)c(C(=O)NCCN2CCOCC2)cc2c(=O)n3cccc(C)c3nc21,EC50,[22],> 69.5 µM (inactive)
same,AC50,[23],25.3 µM (active)
same,EC50,[10],> 50 µM (not active)
CCN1C(=O)c2cccc3c(NC(=O)c4cccc(N5C(=O)CCC5=O)c4)ccc1c23,IC50,[24],> 80 µM (inactive)
same,AC50,[25],22.4 µM (inconclusive)
same,IC50,[26],17.9 µM (active)
same,IC50,[27],11.3 µM (active)
CC(C)(C)c1ccc(CN2C(=O)CN=C(c3ccccc3)c3ccccc32)cc1,IC50,[5],3.35 µM (active)
O=C(Nc1ccc(N2C(=O)CC(c3ccccc3)C2=O)c(Cl)c1)c1ccccn1 (stereo unspecified),EC50,[28],0.49 µM (active)
COc1ccc(OCC(=O)N/N=C/c2ccc(OC)c(OC)c2C(=O)O)cc1,IC50,[2],> 79.4 µM (inactive)
same,IC50,[3],> 79.4 µM (inactive)
same,IC50,[4],> 79.4 µM (inactive)
O=C(Nc1ccc(Cl)c(Cl)c1)c1ccncn1,EC50,[28],3.37 µM (active)
